Results: patent publication US6896895B2, “Carotenoid esters, carotenoid-enriched feeds, and methods of pigmenting foods and foodstuffs” (DSM IP Assets B.V., priority 2000, dated 2005)

Tests used:
[1] = system: skin and shanks of broilers; assay: Reflectance colorimetry and visual classification of skin and shanks of broilers; assay type: in vivo, broiler chickens (Ross 308, Ross 508); set-up: key to Shanks Visual Classification / Skin Visual Classification: −; (+); +; ++ = good color; o = orange; conditions: dry carcasses, average over doses, Table 6
Procedure: (§1) Pigmentation efficacy was assessed in egg yolk, in the back skin of the broiler carcass, and in broiler shanks by reflectance colorimetry accompanied by visual scoring (Roche Colour Fan). The deposition of the ethyl-β-apo-8′-carotenoate (control) and the other carotenoid esters was determined in egg yolk and in the broiler back skin. In addition, the carotenoid levels in plasma and abdominal fat were measured.
(§2) The trials were carried out using chickens of the type Ross 308 (trials MC-24/98 and MC-02/99) and Ross 508 (trials MC-11/99, MC-16/99, MC-24/99, and MC-03/00) (Couvir de la Bohardière, F-49290 Saint Laurent de la Plaine). One-day old broiler chickens, separated by sex, were divided by weight into experimental groups of ten animals each and reared in floor pens littered with wood shavings. The chickens were fed a low carotenoid basal grower diet until day 22 (trials MC-24/98, MC-02/99, and MC-11/99) or until day 15 (trials MC-16/99, MC-24/99, and MC-03/00). The low carotenoid basal grower diet contained less than 2 mg total xanthophylls per kg of feed, and its composition is described in Table 2. For the subsequent experimental period of three weeks, the birds received the basal diet supplemented with an appropriate pigment. The feed was given in the form of crumbled pellets during the first week and as pellets thereafter. The animals had unrestricted access to feed and water. A given treatment involved one group of male and one group of female chickens. Each group of chickens was weighed at day 22 (trials MC-24/98, MC-02/99, and MC-11/99) or day 15 (trials MC-16/99, MC-24/99, and MC-03/00) and on day 43. On day 42, five chickens per group were selected at random, labelled, and blood samples were taken from the jugular vein. At the end of the experiment (day 44) the animals were slaughtered in a commercial slaughterhouse (Freyburger, Dannemarie, France). The following day, the color of the skin (hind back of carcasses) and the shanks of the labelled chicken were measured by reflectance colorimetry (Minolta CR 200 apparatus, CIE-Lab system). Samples of the dorsal skin and abdominal fat were obtained, pooled for each experimental group, and the carotenoid concentration was determined. The concentration of carotenoids in feed, plasma, skin, and abdominal fat was determined by standard procedures as described after Tables 1 and 2.
The color of broiler skin and shanks was measured using a tristimulus Minolta CR-300 Chromameter with diffuse D65-illumination and a 0° viewing angle. The color of the skin was read at three different points on the back of the dry broiler carcasses and average values of the triple measurements were recorded. The color of shanks was measured using single measurements at the ball between the toes.
(§3) The color data were expressed as CIE L*a*b*-values including h*(hue) and C* (chroma). The values given in the tables per treatment and trial represent averages of color measurements of four egg yolk pools, ten broiler back skins, or ten broiler shanks (5 males and 5 females).

[2] = Carotenoid ester content in plasma, back skin and abdominal fat of broilers (HPLC); assay type: in vivo, broiler chickens (Ross 308, Ross 508); conditions: average over doses, Table 4
Procedure: as §1, §2
The content of the various carotenoid esters in feed was determined according to the method of Schierle, et al. (J. Schierle , N. Faccin, V. Riegert, Analytical Methods for Vitamins and Carotenoids in Feed, Revised supplement: Determination of Stabilized Apocarotenoic Ester and Canthaxanthin in Premixes and Feeds, Roche publication no. 50771 (1995), publicly available from. F. Hoffmann-La Roche Ltd., CH-4070 Basel). This method was modified in that the mobile phase of the normal-phase HPLC contained 0.5% instead of 7% acetone in n-hexane, improving the separation of the E/Z-isomers of the carotenoid esters. Peaks were related to all-E- and Z-isomers of the various carotenoid esters by chromatography of heat-isomerized solutions of the respective reference substances in n-hexane. The HPLC system was calibrated with the all-E-isomer of ethyl β-apo-8′-carotenoate. The response factor of the various derivatives was deduced from that of ethyl β-apo-8′-carotenoate taking into account the respective molecular weight. The content of the Z-isomer fractions was calculated based on the response of the all-E-isomer and using a correction factor of 1.4 to account for the lower specific absorbance of the Z-isomers.
(§4) The HPLC-system for in-feed analysis was also used to quantify the carotenoid esters in egg yolk, broiler tissues, and broiler plasma, but the extraction procedure was different for the various matrices.
For plasma extraction, 1.0 g of the well-mixed plasma sample was introduced into a 10 ml test tube with 1.0 ml of demineralized water and 4.0 ml of ethanol, and the contents mixed on a Vortex shaker. […]

egg yolk = assay: Egg yolk colour: reflectance colorimetry and Roche Yolk Colour Fan; assay type: in vivo, laying hens (ISA Brown); conditions: egg yolk, laying hens, trial H-25/99, 5.0 mg/kg feed
Procedure: as §1
The trials were carried out following the standard experimental design used for egg yolk pigmentation trials at the Roche Research Center for Animal Nutrition (CRNA, F-68305 Village-Neuf, France). Each year in February the pigmentation trials are started with a new flock of layers. At the beginning of the trials the age of the laying hens (192 birds, type ‘ISA Brown’) were as follows:
(§5) Preceding the trials the hens were fed a low carotenoid basal diet (produced at the CRNA) without carotenoid supplementation for at least 28 days. During the trials, the control group received the low carotenoid basal diet containing less than 2 mg total xanthophylls per kg of feed. The other animals were fed this diet supplemented with the appropriate pigments for three weeks. The diet was given to the animals ad libitum in mash form. The hens had free access to tap water. Beside the unsupplemented control treatment, treatments were carried out involving the provision of supplemented feed, the results of these treatments being presented in Tables 7-9.
Egg yolk color was assessed as described by Steinberg, et al. (Arch. Geflügelk 64 (4), 180-187 (2000)). The yolks were manually separated from the whites of the eggs. The isolated yolks of three to six eggs were combined, weighed, and stirred with a glass rod until the color appeared homogeneous. The color hue was visually scored using the Roche Yolk Colour Fan (RYCF, version 1993). An aliquot of the pooled egg yolks was transferred into a glass cuvette yielding an approximately 2 cm thick layer. The color was then measured by means of a Dr. Lange Xeno Color LS 100 spectro-colorimeter with diffuse D65-illumination and a 8° viewing angle.
as §3

[3] = Carotenoid ester content and deposition rate in egg yolk of laying hens (HPLC); assay type: in vivo, laying hens (ISA Brown); conditions: egg yolk, trial H-25/99, 5.0 mg/kg feed; for Deposition Rate Target Values % of Controls / Ethyl β-apo-8′-carotenoate Equivalents % of Controls: Table 8; for Deposition Rate % of Controls: Table 10
Procedure: as §1
Each year in February the pigmentation trials are started with a new flock of layers.
as §5, with “water.” for “water. Beside the unsupplemented control treatment, treatments were carried out involving the provision of supplemented feed, the results of these treatments being presented in Tables 7-9.”
Peaks were related to all-E- and Z-isomers of the various carotenoid esters by chromatography of heat-isomerized solutions of the respective reference substances in n-hexane. The HPLC system was calibrated with the all-E-isomer of ethyl β-apo-8′-carotenoate. The response factor of the various derivatives was deduced from that of ethyl β-apo-8′-carotenoate taking into account the respective molecular weight. The content of the Z-isomer fractions was calculated based on the response of the all-E-isomer and using a correction factor of 1.4 to account for the lower specific absorbance of the Z-isomers.
as §4
For the extraction of egg yolk, 10 g of pooled and homogenised yolk were mixed with 10 ml of demineralized water using a dispersion instrument (Polytron). 1.0 g of diluted egg yolk was introduced into a 10 ml test tube with 1.0 ml of demineralized water and 2.0 ml of ethanol, and the contents were mixed on a Vortex shaker. After addition of 4.0 ml of n-hexane, the mixture was further treated as described for plasma.

| SMILES | Shanks Chroma C*ab % of Controls [1] | Shanks Color Hue h*ab % of Controls [1] | Shanks Visual Classification [1] | Skin Chroma C*ab % of Controls [1] | Skin Color Hue h*ab % of Controls [1] | Skin Visual Classification [1] | Analytical Content as Equivalent of Ethyl β-apo-8′-carotenoate in % of control Fat [2] | Analytical Content as Equivalent of Ethyl β-apo-8′-carotenoate in % of control Plasma [2] | Analytical Content as Equivalent of Ethyl β-apo-8′-carotenoate in % of control Skin [2] | Color Fan Value % of Controls (egg yolk; Table 8) | Chroma C*ab % of Controls (egg yolk; Table 10) | Color Fan Value % of Controls (egg yolk; Table 10) | Color Hue h*ab % of Controls (egg yolk; Table 10) | Deposition Rate Target Values % of Controls [3] | Ethyl β-apo-8′-carotenoate Equivalents % of Controls [3] | Deposition Rate % of Controls [3] |
| --- | --- | --- | --- | --- | --- | --- | --- | --- | --- | --- | --- | --- | --- | --- | --- | --- |
| CC(C=CC=C(C)C=CC1=C(C)CCCC1(C)C)=CC=CC=C(C)C=CC=C(C)C(=O)OCC(C)(C)C [(8), 2,2-dimethylpropyl beta-apo-8′-carotenoate] | 98% | 101% | (+) | 98% | 100% | (+) | 62% | 78% | 76% | 108% | 94% | 108% | 101% | 89% | 81% | 89% |
| CCC(CC)COC(=O)C(C)=CC=CC(C)=CC=CC=C(C)C=CC=C(C)C=CC1=C(C)CCCC1(C)C [(9), 2-ethyl-1-butyl beta-apo-8′-carotenoate] | 92% | 101% | (+) | 82% | 101% | + | 45% | 59% | 55% | 101% | 99% | 101% | 92% | 87% | 77% | 87% |
| CCCC(C)COC(=O)C(C)=CC=CC(C)=CC=CC=C(C)C=CC=C(C)C=CC1=C(C)CCCC1(C)C (stereo not drawn) [(11), 2-methyl-1-pentyl beta-apo-8′-carotenoate] | 92% | 101% | (+) | 87% | 95% | + | 50% | 59% | 69% | 116% | 101% | 116% | 103% | 112% | 96% | 112% |
